6 molecules from patent US6699868B2, “Pyridazinyl phenyl hydrazones useful against congestive heart failure” (Orion Corporation, priority 2000, dated 2004) can be followed below.

Broadly, the EC50 is the midpoint of the concentration-response curve. In general, melting point refers to the temperature of the solid-liquid transition.

Series [1] has as its system isolated heart. Nature of the series: Effect in left ventricular pressure derivatives in isolated heart (Langendorff). The following applies: Cavia porcellus; isolated guinea-pig heart, constant pressure 50 mmHg, 37° C.; read-out: EC50 on maximal positive derivative of the left ventricular systolic pressure. The protocol:
Experiment 2. Effect in left ventricular pressure derivatives in isolated heart
After sacrification the heart of a guinea-pig was rapidly excised and rinsed in oxygenated perfusion buffer. A cannula was inserted into the aorta and secured with a ligature. Retrograde perfusion began as soon as the heart was placed in a thermostatically controlled moist chamber of the Langendorff apparatus (Hugo Sachs Elektronik, KG). Modified Tyrode solution (37° C.), equilibrated in a thermostatically controlled bulb oxygenator with carbogen (95% O2 and 5% CO2), was used as a perfusion buffer. The composition of the Tyrode solution was (in mM): NaCl 135; MgCl2×6H2O 1; KCl 5; CaCl2×2H2O 2; NaHCO3 15; Na2HPO4×2H2O 1; glucose 10; pH 7.3-7.4. The perfusion buffer was delivered at the top of the oxygenator by a pump and driven automatically by its controller. Subsequently, the buffer was delivered into the bulbs of the oxygenator chamber by a rotating disk. It was dispersed by making a thin fluid film on a large inner oxygenator surface in O2/CO2 atmosphere leading to saturation of the perfusate with oxygen (partial pressure 660 mmHg at 37° C.).
The experiments were carried out under constant pressure condition (50 mmHg). After a short prestabilization (10 min) a latex balloon (size 4) was carefully placed into the left ventricle through the left pulmonary vein and the left atrium. The latex balloon was attached to a stainless-steel cannula coupled with a pressure transducer. The latex balloon, the cannula and the chamber of the pressure transducer were carefully filled with ethylene glycol/water (1:1) mixture avoiding any air-bubble. The isovolumetric left ventricular pressure was recorded through the pressure transducer. At the beginning of the experiment, the volume of the balloon was adjusted to obtain a diastolic pressure of approximately 5 mmHg. Before starting the experiment the heart was allowed to stabilise further for 30-50 min. The systolic and end-diastolic left ventricular pressures were recorded for calculating the maximal positive and negative derivatives of the left ventricular pressure.

The subject of series [2] is skinned cardiac fiber. The series is described as follows: Calcium sensitizing effect in skinned cardiac fiber. To be noted: Cavia porcellus; maximum effect; test compound 0.1-10 μM added cumulatively; calcium (pCa 6.0 or 6.2)-induced tension; room temperature; read-out: Change in force/ % change from control (maximum calcium sensitizing effect in skinned fiber). In kind it is cell-based, guinea-pig. The protocol: Experiment 1. Calcium sensitizing effect in skinned cardiac fiber
The heart of a guinea-pig was excised and perfused with ice-cold saponin (125 mg/l) skinning solution consisting of (mM): K^+-acetate 74.7. EGTA-Na2 10, MgSO4 5.4, ATP-Na2 4, MOPS 20, pH 7.0 (by 1 M KOH). Left ventricular papillary muscle was dissected and sonicated at 10 Watt for 60 s. The distance between ultrasound probe and the papillary muscle was 10 mm. The fibres (<200 μm in diameter) were dissected from the surface of sonicated papillary muscles in the same solution.
The fibre was glued between platinum wires, one attached to an isometric force transducer (type AE-801,SensoNor, Horten, Norway) and another to a micro manipulator. The fibre was relaxed in a solution consisting of (mM): EGTA-Na2 10, MgSO4 5.4, ATP-Na2 4, MOPS 20. The pH of the solution was adjusted to 7.0 and ionic strength to 0.16 M by the addition of KOH and K^+-acetate. Creatine kinase and creatine phosphate were not added as an ATP generating system because the developed tension was well sustained for the time required for experiment. The calculations for ionic strength and for free calcium (pCa 7.0-6.2) were performed using a suitable program. The fibres were stretched in relaxing solution until resting tension was just noticeable. When the calcium (pCa 6.0 or 6.2)-induced tension had reached steady state the test compound (final concentrations 0.1, 0.3, 1, 3,and 10 μM) was cumulatively added into the solution at 6 min intervals. All the experiments were carried out with fresh fibres at normal room temperature.

In the case of `CCc1c(O)ccc(C=NNc2ccc(C3=NNC(=O)CC3C)cc2)c1O` (stereo not drawn) [Example 40, 6-{4-[N′-(3-Ethyl-2,4-dihydroxy-benzylidene)-hydrazino]-phenyl}-5-methyl-4,5-dihydro-2H-pyridazin-3-one], the melting point was 238 to 240 °C. Further, in series [1], the concentration giving a half-maximal response (EC50) worked out at 710 nM. Also, the Emax in series [2] turned out to be 100%.

On to `Cc1cc(=O)[nH]nc1-c1ccc(NN=Cc2ccc(O)cc2O)cc1` [Example 21, 6-{4-[N′-(2,4-Dihydroxybenzylidene)hydrazino]phenyl}-5-methyl-2H-pyridazin-3-one], for which the melting point was in the range of 303 to 310 °C. In addition, the EC50 in series [1] is 3040 nM. Further, the Emax in series [2] was determined as 44.2%.

In turn, `COc1c(O)ccc(C=NNc2ccc(C3=NNC(=O)CC3C)cc2)c1[N+](=O)[O-]` (stereo not drawn) [Example 6, 6-{4-[N′-(4-Hydroxy-3-methoxy-2-nitro-benzylidene)-hydrazino]-phenyl}-5-methyl-4,5-dihydro-2H-pyridazin-3-one] gave a melting point of 235 to 239 °C. Further, in series [1], the EC50 stood at 310 nM. The Emax in series [2] came to 32.9%.

`CCCc1c(O)ccc(C=NNc2ccc(C3=NNC(=O)CC3C)cc2)c1O` (stereo not drawn) [Example 43, 6-{4-[N′-(2,4-Dihydroxy-3-propyl-benzylidene)-hydrazino]-phenyl}-5-methyl-4,5-dihydro-2H-pyridazin-3-one] yielded a melting point of 160 to 170 °C. In addition, in series [1], the EC50 turned out to be 1750 nM. For the same molecule, in series [2], the Emax was found to be 39%.

`CC(=NNc1ccc(C2=NNC(=O)CC2C)cc1)c1ccc(O)cc1O` (stereo not drawn) [Example 33, 6-(4-{N′-[1-(2,4-Dihydroxy-phenyl)-ethylidene]-hydrazino}-phenyl)-5-methyl-4,5-dihydro-2H-pyridazin-3-one] had a melting point of 259 to 261 °C. In series [1], the EC50 was 400 nM. In series [2], the Emax is 55.2%.

`CC(=NNc1ccc(C2=NNC(=O)CC2C)cc1)c1cc(O)ccc1O` (stereo not drawn) [Example 35, 6-(4-{N′-[1-(2,5-Dihydroxy-phenyl)-ethylidene]-hydrazino}-phenyl)-5-methyl-4,5-dihydro-2H-pyridazin-3-one] showed a melting point of 279 to 284 °C. Besides, the EC50 in series [1] is 310 nM. The Emax in series [2] turned out to be 25.4%.
